Experiments:
Vero cells = experiment: Cell growth rates after compound wash-out; type: cell-based; settings: 10 µM for 30 hours, 72-hour growth
Experimental: Vero cells were seeded at a density of 6×10^5 cells and incubated in the presence of 10 µM JMN3-003 or vehicle only for 30 hours at 37°C. Cells were then washed extensively and reseeded at a density of 1×10^5 cells per well, followed by continued incubation at 37°C and assessment of life/dead cell numbers every 24 hours using a Countess automated cell counter (Invitrogen). Cells were reseeded as before when fastest growing cultures approached confluency. Growth rates were calculated for each 24-hour time interval using the Prism software package (GraphPad Software Inc.) based on the formula Y = Y0*exp(K*X) with Y equaling life cell numbers, Y0 the Y value at the starting time (t0), and K the growth constant equaling ln(2)/doubling-time.

[1] = Cytotoxicity (metabolic activity), BHK-21; type: cell-based, Rodent-Syrian hamster; settings: Syrian hamster, BHK-21 cells, highest concentration assessed 75 µM
Experimental: (§1) A non-radioactive cytotoxicity assay (CytoTox 96 Non-Radioactive Cytotoxicity Assay, Promega) was employed to determine the metabolic activity of cell after exposure to the compound. In a 96-well plate format, 10,000 cells per well were incubated at 37°C for 24 hours in four replicates per concentration tested in the presence of compound in two-fold dilutions starting at 75 µM. Substrate was then added and color development measured at 490 nm using a BioRad plate reader. Values were calculated according to the formula [% toxicity = 100−((experimental-background)/(maximum(vehicle treated)-background)*100)]. Values were plotted in dose-response curves and, if applicable, CC50 concentrations calculated.

sindbis virus = type: cell-based; settings: compared with activity against myxoviruses
[2] = Cytotoxicity (metabolic activity), HT1080; type: cell-based; settings: human, HT1080 cells, highest concentration assessed 75 µM
Experimental: as §1

[3] = tested on: para- and orthomyxovirus family members; experiment: organism not typed; type: cell-based
Influenza A/WSN [4] = experiment: Immunodetection of virus-encoded influenza A/WSN M2; type: cell-based; settings: 100 nM
Experimental: Aliquots with equal total concentrations of cleared lysates (20,000×g; 10 min; 4°C) were mixed with 2x-urea buffer (200 mM Tris, pH 6.8; 8 M urea; 5% sodium dodecyl sulfate (SDS); 0.1 mM EDTA; 0.03% bromphenol blue; 1.5% dithiothreitol) and denatured for 25 min at 50°C. Samples were then fractionated on 10% SDS-polyacrylamide gels, blotted to polyvinylidene difluoride (PVDF) membranes (Millipore) and subjected to enhanced chemiluminescence detection (Pierce) using specific antisera directed against phosphorylated or non-phosphorylated cdc2-cyclin B kinase (Cell Signaling Technology), GAPDH (Abcam), the cytosolic tail of the MeV F protein [81], or influenza A/WSN virus M2 (Thermo Scientific). Immunostained PVDF membranes were developed using a ChemiDoc XRS digital imaging system (Bio-Rad) and horseradish peroxidase conjugated anti-species IgG (mouse or rabbit) antibodies. For densitometry, signals were quantified using the QuantityOne software package (Bio-Rad).

SOI Influenza A/Mexico = experiment: Virus yield reduction assay, SOI influenza A/Mexico; type: cell-based, swine-origin influenza virus isolate S-OIV Mexico; settings: genome copy numbers of released progeny particles by TaqMan RT-PCR
MeV-Alaska particles = experiment: Virus pre-incubation (virucidal activity) assay; type: cell-based, measles virus; settings: 1.0 µM for 60 minutes, diluted to 1.0 nM
[5] = Cytotoxicity (metabolic activity), CHO; type: cell-based, Rodent-Chinese hamster; settings: Chinese hamster, CHO cells, highest concentration assessed 75 µM
Experimental: as §1

in vitro = type: cell-based, Avian-chicken; settings: chicken; DF-1; highest concentration assessed 75 µM; read-out: CC50, Metabolic Activity
Experimental: as §1

Influenza A/WSN [6] = experiment: Quantitation of influenza A/WSN antigenome and released progeny genome copies; type: cell-based; settings: MDCK cells, 24 hours
[7] = tested on: different established cell lines (HeLa, A549, HepG2, Vero-Slam, MDCK); experiment: Metabolic activity of different established cell lines; type: cell-based, human, primate, canine; settings: at 75 µM, 24 hours
Experimental: as §1

PBMCs = experiment: Metabolic activity of primary human PBMCs; type: cell-based; settings: 24 hours exposure
Experimental: as §1

[8] = Cytotoxicity (metabolic activity), MEL B16; type: cell-based, Rodent-mouse; settings: mouse, MEL B16 cells, highest concentration assessed 75 µM
Experimental: as §1

MuV (S. Africa) = experiment: microbe, parasite or virus in culture; type: cell-based, mumps virus strain South Africa; settings: Mumps orthorubulavirus; titered through plaque assaying
[9] = Cytotoxicity (metabolic activity), Vero-Slam cells; type: cell-based; settings: African green monkey, highest concentration assessed 75 µM, read-out: CC50, Toxicity, Metabolic activity
Experimental: as §1

smooth muscle cells = experiment: Metabolic activity of primary human smooth muscle cells; type: cell-based; settings: 24 hours exposure
Experimental: as §1

Influenza A/PR/8/34 = experiment: Virus yield reduction assay, influenza A/PR/8/34; type: cell-based, influenza A strain PR8/34 (H1N1); settings: genome copy numbers of released progeny particles by TaqMan RT-PCR
[10] = Cytotoxicity (metabolic activity), MDCK; type: cell-based, Canine-dog; settings: dog, MDCK cells, highest concentration assessed 75 µM
Experimental: as §1

[11] = Cytotoxicity (metabolic activity), NIH-3T3; type: cell-based, Rodent-mouse; settings: mouse, NIH-3T3 cells, highest concentration assessed 75 µM
Experimental: as §1

[12] = tested on: MeV H and F mediated cell-to-cell fusion; experiment: MeV glycoprotein-mediated cell-to-cell fusion assay; design: species or system measles virus; settings: microscopic and luciferase reporter-based
SOI Influenza A/Texas = experiment: Virus yield reduction assay, SOI influenza A/Texas; type: cell-based, swine-origin influenza virus isolate S-OIV Texas; settings: genome copy numbers of released progeny particles by TaqMan RT-PCR
[13] = Cytotoxicity (metabolic activity), HeLa; type: cell-based; settings: human, HeLa cells, highest concentration assessed 75 µM
Experimental: as §1

COc1ccc(-n2c(SC(C)C(=O)Nc3ccc(C)cc3Cl)nc3ccccc32)cc1 (stereo not shown) [JMN3-003]
proliferation rates after removal of compound (Vero cells): proliferation rates resumed those of untreated control cells | CC50 at 24 h [1]: > 75000 nM | activity against sindbis virus (sindbis virus): to a lesser degree | CC50 at 24 h [2]: > 75000 nM | EC50 ([3]; range depending on the target virus, read-out: active concentrations (anti-myxovirus activity)): 10 to 80 nM | EC50 ([3]; unidentified influenza virus, read-out: average EC50 concentrations): ~40 nM | expression of virus-encoded proteins, orthomyxovirus infection (Influenza A/WSN [4]): fully blocked | EC50 (SOI Influenza A/Mexico): 10 ± 3 nM | antiviral effect of preincubation of viral particles (virucidal activity) (MeV-Alaska particles): lacked any appreciable antiviral effect | CC50 at 24 h [5]: > 75000 nM | CC50 at 24 h (in vitro): > 75000 nM | drop in relative viral antigenome levels (Influenza A/WSN [6]): > 100 fold | reduction in genome copies of released progeny virions (Influenza A/WSN [6]): > 10,000 fold | metabolic activity of different established cell lines [7]: unchanged | metabolic activity of primary human PBMCs (PBMCs): unaffected | CC50 at 24 h [8]: > 75000 nM | EC50 (MuV (S. Africa)): 33 ± 31 nM | CC50 at 24 h [9]: > 75000 nM | metabolic activity of primary human smooth muscle cells (smooth muscle cells): unaffected | EC50 (Influenza A/PR/8/34): 10 ± 1 nM | CC50 at 24 h [10]: > 75000 nM | CC50 at 24 h [11]: > 75000 nM | MeV glycoprotein-mediated cell-to-cell fusion [12]: extensive membrane fusion indistinguishable from that seen in vehicle-treated controls | EC50 (SOI Influenza A/Texas): 40 ± 10 nM | CC50 at 24 h [13]: > 75000 nM

From publication PMC3095640, “Potent Host-Directed Small-Molecule Inhibitors of Myxovirus RNA-Dependent RNA-Polymerases” (PLoS ONE, 2011)
